Source: patent US6376497B1, “Antifungal azole derivatives having a fluorinated vinyl group and process for preparing same” (Korea Research Institute of Chemical Technology, priority 1999, dated 2002)
In brackets after ≈: the same amount, converted by molar mass.

What was measured:
Experiment in all cases: In vitro antifungal activity, microbroth dilution MIC
Assay type in all cases: cell-based
[1] = system: Candida albicans C1-2; conditions: 4 to 48 hours; for Minimal inhibitory concentration (MIC): C. albicans C1-2, RPMI-1640, 35° C.; for Minimal inhibitory concentration(MIC), C. albicans C1-2: RPMI-1640, 35° C., no growth observed
Outline: (§1)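 Broth microdilution adapted from NCCLS M27, in RPMI-1640 with 0.165 M MOPS, pH 7.0. Yeast or mould inoculum at 2×10^3 CFU/ml was mixed 1:1 with DMSO-derived compound solutions (200 to 0.10 μg/ml before mixing) and incubated at 35 °C for 4 to 48 h. MIC was the concentration showing no growth.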

[2] = system: Candida pseudotropicalis K. 11658; conditions: 4 to 48 hours; for Minimal inhibitory concentration (MIC): C. pseudotropicalis K. 11658, RPMI-1640, 35° C.; for Minimal inhibitory concentration(MIC), C. pseudotropicalis K. 11658: RPMI-1640, 35° C., no growth observed
Outline: as §1

[3] = system: Cryptococcus neoformans A. 34144; conditions: for Minimal inhibitory concentration (MIC): Cry. neoformans A. 34144, RPMI-1640, 35° C.; for Minimal inhibitory concentration(MIC), Cry. neoformans A. 34144: RPMI-1640, 35° C., no growth observed
Outline: as §1

[4] = system: Trichophyton mentagrophytes A. 9129; conditions: for Minimal inhibitory concentration (MIC): T. mentagrophytes A. 9129, RPMI-1640, 35° C.; for Minimal inhibitory concentration(MIC), T. mentagrophytes A. 9129: RPMI-1640, 35° C., no growth observed
Outline: as §1

[5] = system: Trichophyton mentagrophytes B. 32663; conditions: for Minimal inhibitory concentration (MIC): T. mentagrophytes B. 32663, RPMI-1640, 35° C.; for Minimal inhibitory concentration(MIC), T. mentagrophytes B. 32663: RPMI-1640, 35° C., no growth observed
Outline: as §1

[6] = system: Cryptococcus neoformans IFM. 40092; conditions: for Minimal inhibitory concentration (MIC): Cry. neoformans IFM. 40092, RPMI-1640, 35° C.; for Minimal inhibitory concentration(MIC), Cry. neoformans IFM. 40092: RPMI-1640, 35° C., no growth observed
Outline: as §1

[7] = system: Candida albicans IFO. 1385; conditions: 4 to 48 hours; for Minimal inhibitory concentration (MIC): C. albicans IFO. 1385, RPMI-1640, 35° C.; for Minimal inhibitory concentration(MIC), C. albicans IFO. 1385: RPMI-1640, 35° C., no growth observed
Outline: as §1

[8] = system: Torulopsis glabrata B. 16205; conditions: 4 to 48 hours; for Minimal inhibitory concentration (MIC): T. glabrata B. 16205, RPMI-1640, 35° C.; for Minimal inhibitory concentration(MIC), T. glabrata B. 16205: RPMI-1640, 35° C., no growth observed
Outline: as §1

[9] = system: Candida tropicalis A. 13803; conditions: 4 to 48 hours; for Minimal inhibitory concentration (MIC): C. tropicalis A. 13803, RPMI-1640, 35° C.; for Minimal inhibitory concentration(MIC), C. tropicalis A. 13803: RPMI-1640, 35° C., no growth observed
Outline: as §1

[10] = system: Candida krusei K. 11655; conditions: 4 to 48 hours; for Minimal inhibitory concentration (MIC): C. krusei K. 11655, RPMI-1640, 35° C.; for Minimal inhibitory concentration(MIC), C. krusei K. 11655: RPMI-1640, 35° C., no growth observed
Outline: as §1

[11] = system: Aspergillus furnigatus B. 19119; conditions: for Minimal inhibitory concentration (MIC): A furnigatus B. 19119, RPMI-1640, 35° C.; for Minimal inhibitory concentration(MIC), A furnigatus B. 19119: RPMI-1640, 35° C., no growth observed
Outline: as §1

[12] = system: Candida albicans A. 10231; conditions: 4 to 48 hours; for Minimal inhibitory concentration (MIC): C. albicans A. 10231, RPMI-1640, 35° C.; for Minimal inhibitory concentration(MIC), C. albicans A. 10231: RPMI-1640, 35° C., no growth observed
Outline: as §1

[13] = system: Aspergillus niger A. 16404; conditions: for Minimal inhibitory concentration (MIC): A. niger A. 16404, RPMI-1640, 35° C.; for Minimal inhibitory concentration(MIC), A. niger A. 16404: RPMI-1640, 35° C., no growth observed
Outline: as §1

[14] = system: Cryptococcus neoformans B. 42419; conditions: 4 to 48 hours; for Minimal inhibitory concentration (MIC): Cry. neoformans B. 42419, RPMI-1640, 35° C.; for Minimal inhibitory concentration(MIC), Cry. neoformans B. 42419: RPMI-1640, 35° C., no growth observed
Outline: as §1

[15] = system: Candida parapsitosis A. 7330; conditions: 4 to 48 hours; for Minimal inhibitory concentration (MIC): C. parapsitosis A. 7330, RPMI-1640, 35° C.; for Minimal inhibitory concentration(MIC), C. parapsitosis A. 7330: RPMI-1640, 35° C., no growth observed
Outline: as §1

Minimal inhibitory concentration (MIC) [1] [µg/mL]	Minimal inhibitory concentration (MIC) [2] [µg/mL]	Minimal inhibitory concentration (MIC) ([3]; 4 to 48 hours) [µg/mL]	Minimal inhibitory concentration (MIC) ([4]; 4 to 48 hours) [µg/mL]	Minimal inhibitory concentration (MIC) ([5]; 4 to 48 hours) [µg/mL]	Minimal inhibitory concentration (MIC) ([6]; 4 to 48 hours) [µg/mL]	Minimal inhibitory concentration (MIC) [7] [µg/mL]	Minimal inhibitory concentration (MIC) [8] [µg/mL]	Minimal inhibitory concentration (MIC) [9] [µg/mL]	Minimal inhibitory concentration (MIC) [10] [µg/mL]	Minimal inhibitory concentration (MIC) ([11]; 4 to 48 hours) [µg/mL]	Minimal inhibitory concentration (MIC) [12] [µg/mL]	Minimal inhibitory concentration (MIC) ([13]; 4 to 48 hours) [µg/mL]	Minimal inhibitory concentration (MIC) [14] [µg/mL]	Minimal inhibitory concentration (MIC) [15] [µg/mL]	Minimal inhibitory concentration(MIC), C. albicans C1-2 [1] [µg/mL]	Minimal inhibitory concentration(MIC), C. pseudotropicalis K. 11658 [2] [µg/mL]	Minimal inhibitory concentration(MIC), C. albicans IFO. 1385 [7] [µg/mL]	Minimal inhibitory concentration(MIC), T. glabrata B. 16205 [8] [µg/mL]	Minimal inhibitory concentration(MIC), C. tropicalis A. 13803 [9] [µg/mL]	Structure (SMILES)	other results
25.0 (≈ 50.7 µM)	3.13 (≈ 6.34 µM)	1.56 (≈ 3.16 µM)	0.78 (≈ 1.58 µM)	0.78 (≈ 1.58 µM)	0.39 (≈ 0.791 µM)	1.56 (≈ 3.16 µM)	6.25 (≈ 12.7 µM)	50.0 (≈ 101 µM)	6.25 (≈ 12.7 µM)	1.56 (≈ 3.16 µM)	12.5 (≈ 25.3 µM)	3.13 (≈ 6.34 µM)	0.78 (≈ 1.58 µM)	6.25 (≈ 12.7 µM)	–	–	–	–	–	FC(=Cc1ccc2c(c1)OCO2)OCC1COC(Cn2ccnc2)(c2ccc(Cl)cc2Cl)O1 (stereo not drawn) [Ex. 12]	–
–	–	–	–	–	–	–	–	–	–	–	–	–	–	–	>100	0.78	0.39	50.0	>100	FC(=C(c1ccc(F)cc1)C(F)(F)F)N1CCN(c2ccc(OCC3COC(Cn4ccnc4)(c4ccc(F)cc4F)O3)cc2)CC1 (mixture of isomers) [Ex. 148]	Minimal inhibitory concentration(MIC), Cry. neoformans A. 34144 [3]: 0.78 µg/mL; Minimal inhibitory concentration(MIC), T. mentagrophytes A. 9129 [4]: 3.13 µg/mL; Minimal inhibitory concentration(MIC), T. mentagrophytes B. 32663 [5]: ≦0.10 μg/ml; Minimal inhibitory concentration(MIC), Cry. neoformans IFM. 40092 [6]: ≦0.10 μg/ml; Minimal inhibitory concentration(MIC), C. krusei K. 11655 [10]: 0.39 µg/mL; Minimal inhibitory concentration(MIC), A furnigatus B. 19119 [11]: 6.25 µg/mL; Minimal inhibitory concentration(MIC), C. albicans A. 10231 [12]: >100 µg/mL; Minimal inhibitory concentration(MIC), A. niger A. 16404 [13]: 100 µg/mL; Minimal inhibitory concentration(MIC), Cry. neoformans B. 42419 [14]: 0.78 µg/mL; Minimal inhibitory concentration(MIC), C. parapsitosis A. 7330 [15]: 0.78 µg/mL
12.5	25.0	3.13	6.25	3.13	0.78	0.78	6.25	25.0	50.0	6.25	12.5	25.0	3.13	100	–	–	–	–	–	Cc1cc(C)cc(C=C(F)OCC2COC(Cn3ccnc3)(c3ccc(F)cc3F)O2)c1 (mixture of isomers) [Ex. 41]	–
–	–	–	–	–	–	–	–	–	–	–	–	–	–	–	>100	50.0	12.5	>100	>100	Cc1ccc(C(=C(F)OCC2COC(Cn3cncn3)(c3ccc(Cl)cc3Cl)O2)C(F)(F)F)cc1 (mixture of isomers) [Ex. 81]	Minimal inhibitory concentration(MIC), Cry. neoformans A. 34144 ([3]; 4 to 48 hours): 0.78 µg/mL; Minimal inhibitory concentration(MIC), T. mentagrophytes A. 9129 ([4]; 4 to 48 hours): 100 µg/mL; Minimal inhibitory concentration(MIC), T. mentagrophytes B. 32663 ([5]; 4 to 48 hours): 100 µg/mL; Minimal inhibitory concentration(MIC), Cry. neoformans IFM. 40092 ([6]; 4 to 48 hours): 0.39 µg/mL; Minimal inhibitory concentration(MIC), C. krusei K. 11655 [10]: >100 µg/mL; Minimal inhibitory concentration(MIC), A furnigatus B. 19119 ([11]; 4 to 48 hours): >100 µg/mL; Minimal inhibitory concentration(MIC), C. albicans A. 10231 [12]: >100 µg/mL; Minimal inhibitory concentration(MIC), A. niger A. 16404 ([13]; 4 to 48 hours): >100 µg/mL; Minimal inhibitory concentration(MIC), Cry. neoformans B. 42419 [14]: 1.56 µg/mL; Minimal inhibitory concentration(MIC), C. parapsitosis A. 7330 [15]: >100 µg/mL
25.0	6.25	3.13	0.78	0.39	0.39	3.13	25	>100	12.5	6.25	25.0	6.25	1.56	>100	–	–	–	–	–	FC(=Cc1ccccc1)OCC1COC(Cn2cncn2)(c2ccc(Cl)cc2Cl)O1 (mixture of isomers) [Ex. 69]	–
